Data reported in US7297551B2, “Recombinant proteins and peptides for endotoxin biosensors, endotoxin removal, and anti-microbial and anti-endotoxin therapeutics” (priority 1998, dated 2007).
Where two headings read alike, the source gives them in different places. Peptide text beside a SMILES is read from it.

Key:
[1] = system: LPS-induced hTNF-α secretion from THP-1; assay: Inhibition of LPS-induced hTNF-α secretion from PMA-treated THP-1 cells; type: cell-based, human
Procedure: […] THP-1 cells were grown in RPMI 1640 medium supplemented with 10% FBS, penicillin (100 U/ml) and streptomycin (0.1 mg/ml), at 37° C. in a humidified environment in the presence of 5% CO2. The cells were maintained at a density between 2.5×10^5 and 2.5×10^6 cells/ml.
THP-1 cells were prepared for experiment by addition of a concentrated stock solution of phorbol myristate acetate (PMA, 0.3. mg/ml in dimethyl sulfoxide) to cell suspension to give a final concentration of 30 ng/ml PMA and 0.01% dimethyl sulfoxide (25). PMA-treated cell suspensions were immediately plated into 96-well microtitre plate at a density of 4×10^5 cells/ml and allowed to differentiate for 48 hours at 37° C. […] At indicated times, the culture medium was collected.

[2] = Protection of galactosamine-sensitized mice from LPS-induced lethality; type: in vivo, C57BL/6J mice; conditions: 75 μg peptide, 2 ng LPS pre-incubated with peptide 30 minutes
Procedure: The anti-endotoxin potency of SSCrFCES was investigated in C57BL/6J mice. Mice are typically resistant to endotoxin. However, the sensitivity of mice to endotoxin can be enhanced >1,000-fold by co-injection with a liver-specific inhibitor, galactosamine (31). […] […] Lethality was observed over 3 days after injection. Statistical analysis were performed using the Kaplan-Meier test (32) and log rank pairwise test.

[3] = system: P. aeruginosa; assay: Microbicidal concentration (MBC) assay; type: cell-based, Pseudomonas aeruginosa
Procedure: Test strains cultured on Mueller-Hinton agar (MHA, Becton Dickinson, USA) were inoculated into 10 ml Mueller-Hinton broth (MHB, Becton Dickinson, USA) and grown overnight at 37° C. in a shaker incubator (Model 4536, Forma Scientific, Inc., USA) at 230 rpm. Overnight broth cultures were diluted to give a final cell density of 10^5 colony forming units/ml (cfu/ml). One hundred microliters of the bacterial suspension was dispensed into sterile polypropylene 8-strip PCR-tubes (Quality Scientific Plastics, USA). Eleven microliters of serially diluted sushi peptides, ranging in final concentrations of 0.03-4 μg/ml, were then added. The peptides were constituted at 10 times the required test concentrations in 0.01% acetic acid and 0.2% bovine serum albumin (BSA). Positive controls were cultures without test peptides. Uninoculated MHB was used as negative control. All tests were carried out in triplicate.
Cultures were incubated at 37° C. for 18-24 h, with the PCR-tubes held in horizontal position and shaken at 230 rpm. Cell counts were determined by standard drop-count method. The killing efficiency for the four sushi peptides were calculated based on standard drop-count method.

[4] = system: P. aeruginosa ATCC 27853; assay: Killing rate assay; type: cell-based, Pseudomonas aeruginosa; conditions: peptides at 0.06 μg/ml, initial 10^9 cfu/ml
Source text: The killing rate assay was adapted from the MBC test above, with different contact time of peptides with the bacteria arrested at regular intervals and plated for colony count. An initial density of 10^9 cfu/ml was used. […] This is one of the important features of an effective therapeutic agent.

[5] = system: Human erythrocytes; assay: Hemolysis assay, human erythrocytes; type: cell-based; conditions: at 100 μg/ml
Procedure: Human and rabbit erythrocytes were both used to test the hemolytic activities of the peptides. Whole blood was collected in heparinized sterile syringe, transferred to sterile borosilicate tube and centrifuged at 1200 g for 5 minutes at 4° C. The supernatant including the leukocytes above the erythrocyte pellet was discarded. The erythrocytes were washed 3 times using three volumes of prechilled pyrogen-free saline (PFS). An erythrocyte suspension at 0.4% was prepared for the hemolysis assay. Serial two-fold dilutions of the peptides was prepared in PFS and 100 μl aliquots were added to equal volumes of 0.4% erythrocyte solution in a 96-well microtiter plate (Nunclon™ Δ surface, Nunc) to give final peptide concentrations ranging from 6 to 100 μg/ml. The mixtures were incubated at 37° C. for 1 h. The intact erythrocytes were then pelleted by centrifuging at 1000 g for 5 min. One hundred μl of the supernatant was transferred to a new 96-well microtiter plate and the amount of hemoglobin released into the supernatant was determined by reading the absorbance at 414 nm using a SPECTRAmax™ 340 plate reader with SOFTmax PRO™ version 1.2.0. A positive control with 100 μl of 0.4% erythrocyte lysed in 1% Triton-X 100 was taken as 100% lysis. The negative control was the erythrocytes in PFS alone, which gave minimal lysis. This was taken as 0%.

[6] = Hill's plot for interaction between synthetic peptides and lipid A; type: binding; conditions: number of peptide molecules to 1 LPS molecule
[7] = Modified Western blot LPS-binding assay of rFC; design: species or system E. coli; conditions: 300 μg protein per LPS/lipid A strip
Procedure: LPS from E. coli 055:B5 (Sigma) was reconstituted to 2 μg/μl, and diphosphoryl lipid A from E. coli K12, D31m4 LPS (List Biologicals, Inc., USA) was made up to 1 μg/μl. The LPS-binding assay was based on modifications of earlier described protocols (45,61). Briefly, 10 μg aliquots of LPS/lipid A were electrophoresed on a denaturing 15% SDS-polyacrylamide gel and electroblotted onto Immobilon™ PVDF membrane. The membrane was cut into strips and each LPS/lipid A strip was subsequently incubated with 300 μg of proteins containing rFC. Detection of rFC binding to lipid A was accomplished by incubation with anti-Factor C antibody followed by alkaline phosphatase-conjugated secondary goat anti-rabbit antibody (Dako) and BCIP/NBT colorimetric substrate (Moss, Inc., USA).

[8] = Competition between rFC and CAL Factor C for LPS (fluorimetric assay); type: biochemical; conditions: Biomax-50 enriched, 100 μg
Procedure: Carcinoscorpius amoebocyte lysate (CAL) containing native Factor C was used in an assay in which rFC competed with CAL Factor C for LPS. Because the rFC produced in P. pastoris lacks serine protease activity, the competition can be monitored by measuring the reduced enzymatic activity of CAL in a fluorimetric assay. Mixtures of 100 μl each of increasing concentrations of LPS or rFC, in fluorimetric assay buffer (50 mM Tris HCl pH 8, containing 0.1 M NaCl and 0.01 M CaCl2) were incubated at 37° C. for 1 h. Aliquots of 20 μg CAL were added to each mixture and the total volumes were made up to 2 ml with fluorimetric assay buffer. The reaction was continued at 37° C. for 1 h and the fluorimetric assay protocol (64) was followed. This involved the addition of 15 μl of 2 mM fluorimetric substrate N-t-Boc-Val-Pro-Arg-7-amido-4-methylcoumarin (Sigma) and incubation at 37° C. for 30 min. The reaction was terminated by the addition of 0.1 ml of glacial acetic acid (Merck). The product, amino methylcoumarin, was measured in fluorescence units (FU) on a Luminescence Spectrometer LS-5 (Perkin-Elmer) with excitation light at 380 nm and emission at 460 nm.
The percentage competition by rFC of the native Factor C enzyme activity of CAL was calculated based on comparison of enzyme activity with the negative control of pHILD2/151. […]
[formula] where FU represents fluorescence units.

[9] = system: Escherichia coli ATCC#25922; assay: Bacteriostatic activity in in vitro culture, E. coli; type: cell-based; conditions: within 2 h of incubation
Procedure: (§1) The bacteria used for the assay were Escherichia coli ATCC#25922, Salmonella typhimurium ATCC#14028, Pseudomonas aeruginosa ATCC#27853, Klebsiella pneumoniae ATCC#13883 and […]. A colony of each Gram-negative bacterium was inoculated into nutrient broth (Gibco, BRL) and grown at 37° C. until it reached the logarithmic phase of growth. The culture was diluted with nutrient broth to give 1-5×10^5 cells/ml. Aliquots of 2 ml culture were incubated with 1 mg rFC/ml of culture. Incubation was carried out at 37° C. At time intervals of 0, 2, 4, 6, and 24 h, the bacterial culture was vortexed to break up any agglutinated clumps. After vortexing, each culture was examined under the microscope to ensure homogeneity of bacteria. The culture was serially diluted with 0.85% saline, plated on nutrient agar (Oxoid) and incubated overnight at 37° C. for colony counting.

[10] = system: the various bacteria used; assay: Bacteriostatic activity in in vitro cultures, the various bacteria used; type: cell-based; conditions: crude full-length rFC; Sephadex G-100 enriched truncates
Procedure: as §1

## CC[C@H](C)[C@H](NC(=O)[C@H](CCCCN)NC(=O)[C@H](C)NC(=O)[C@H](CCCCN)NC(=O)CNC(=O)[C@H](CCCCN)NC(=O)[C@H](CC(C)C)NC(=O)[C@H](CCCCN)NC(=O)[C@H](Cc1ccccc1)NC(=O)CN)C(=O)N[C@@H](CO)C(=O)N[C@@H](CS)C(=O)N[C@@H](CC(C)C)C(=O)N1CCC[C@H]1C(=O)N[C@@H](CC(N)=O)C(=O)NCC(=O)N[C@@H](CCC(N)=O)C(=O)N[C@@H](Cc1c[nH]c2ccccc12)C(=O)N[C@@H](CO)C(=O)N[C@@H](CC(N)=O)C(=O)N[C@@H](Cc1ccccc1)C(=O)N1CCC[C@H]1C(=O)N1CCC[C@H]1C(=O)N[C@@H](CCCCN)C(=O)N[C@@H](CS)C(=O)N[C@H](C(=O)N[C@@H](CCCNC(=N)N)C(=O)N[C@@H](CCC(=O)O)C(=O)N[C@@H](CS)C(=O)N[C@@H](C)C(=O)N[C@@H](CCSC)C(=O)N[C@H](C(=O)N[C@@H](CO)C(=O)N[C@@H](CO)C(=O)O)C(C)C)[C@@H](C)CC [S1Δ] (H-GFKLKGKAKISCLPNGQWSNFPPKCIRECAMVSS-OH; N-terminus and C-terminus assumed)
[1]; peptide needed for 50% suppression, read-out: Suppression of LPS-Induced cytokine TNF-α (50%)
  IC50: 53 µM
[1]; read-out: 50% inhibition of LPS-induced TNF-α release, 10 ng/ml LPS, serum-free
  IC50: 53.3 µM
[2]
  Mouse Protection Assay: 40% at 75
[3]; MBC
  Anti-microbial Potency P. aeruginosa MBC90: 0.06 µg/mL
[3]; P. aeruginosa
  MBC90: (16 nM)
[4]
  Killing rate (time to achieve MBC90): 7 min
[5]
  Hemolytic activity: negligible haemolysis
[6]
  Stoichiometry of Binding Cooperativity Hill's Coefficient: 1.06

B1: rFCEE: truncated recombinant Factor C from pHILD2/CrFC21EE, amino acids 1-766, 90 kDa, with endotoxin-binding domain (protein, listed as Carcinoscorpius rotundicauda)
chain: MVLASFLVSGLVLGLLAQKMRPVQSKGVDLGLCDETRFECKCGDPGYVFNIPVKQCTYFYRWRPYCKPCDDLEAKDICPKYKRCQECKAGLDSCVTCPPNKYGTWCSGECQCKNGGICDQRTGACACRDRYEGVHCEILKGCPLLPSDSQVQEVRNPPDNPQTIDYSCSPGFKLKGMARISCLPNGQWSNFPPKCIRECAMVSSPEHGKVNALSGDMIEGATLRFSCDSPYYLIGQETLTCQGNGQWNGQIPQCKNLVFCPDLDPVNHAEHKVKIGVEQKYGQFPQGTEVTYTCSGNYFLMGFDTLKCNPDGSWSGSQPSCVKVADREVDCDSKAVDFLDDVGEPVRIHCPAGCSLTAGTVWGTAIYHELSSVCRAAIHAGKLPNSGGAVHVVNNGPYSDFLGSDLNGIKSEELKSLARSFRFDYVRSSTAGKSGCPDGWFEVDENCVYVTSKQRAWERAQGVCTNMAARLAVLDKDVIPNSLTETLRGKGLTTTWIGLHRLDAEKPFIWELMDRSNVVLNDNLTFWASGEPGNETNCVYMDIQDQLQSVWKTKSCFQPSSFACMMDLSDRNKAKCDDPGSLENGHATLHGQSIDGFYAGSSIRYSCEVLHYLSGTETVTCTTNGTWSAPKPRCIKVITCQNPPVPSYGSVEIKPPSRTNSISRVGSPFLRLPRLPLPLARAAKPPPKPRSSQPSTVDLASKVKLPEGHYRVGSRAIYTCESRYYELLGSQGRRCDSNGNWSGRPASCIPVCGRSDSPRSPFIWNG
[7]
  binding to 7-20 kDa lipid A bands: able to bind specifically to lipid A moiety of LPS, albeit less strongly
[8]
  effect on the enzymatic activity of CAL Factor C: markedly lower competitive effect
[9]
  agglutination of E. coli: Agglutination
[10]
  inhibitory effect on growth of the various bacteria: did not have any inhibitory effect
